According to ChEMBL document CHEMBL3044728, “Synthesis and biological activity of new (E)-alpha-(Methoxyimino)benzeneacetate derivatives containing a substituted pyrazole ring” (2010):

Experiments:
Assay type in all cases: functional
[1] = tested on: Pseudoperonospora cubensis; test: Antifungal activity against Pseudoperonospora cubensis assessed as inhibition at 25 mg/L relative to control
[2] = tested on: Phytophthora infestans; test: Antifungal activity against Phytophthora infestans assessed as inhibition at 25 mg/L relative to control
[3] = tested on: Blumeria graminis; test: Antifungal activity against Blumeria graminis assessed as inhibition at 1.56 mg/L relative to control
[4] = tested on: Pseudoperonospora cubensis; test: Antifungal activity against Pseudoperonospora cubensis assessed as inhibition at 400 mg/L relative to control
[5] = tested on: Blumeria graminis; test: Antifungal activity against Blumeria graminis assessed as inhibition at 6.25 mg/L relative to control
[6] = tested on: Blumeria graminis; test: Antifungal activity against Blumeria graminis assessed as inhibition at 400 mg/L relative to control
[7] = tested on: Pyricularia oryzae; test: Antifungal activity against Magnaporthe oryzae assessed as inhibition at 25 mg/L relative to control
[8] = tested on: Myzus persicae; test: Insecticidal activity against Myzus persicae (green peach aphid) at 600 mg/L relative to control
[9] = tested on: Pyricularia oryzae; test: Antifungal activity against Magnaporthe oryzae assessed as inhibition at 0.92 mg/L relative to control
[10] = tested on: Pseudoperonospora cubensis; test: Antifungal activity against Pseudoperonospora cubensis assessed as inhibition at 6.25 mg/L relative to control
[11] = tested on: Culex pipiens pallens; test: Insecticidal activity against Culex pipiens pallens (mosquito) at 600 mg/L relative to control
[12] = tested on: Phytophthora infestans; test: Antifungal activity against Phytophthora infestans assessed as inhibition at 0.92 mg/L relative to control
[13] = tested on: Leucania; test: Insecticidal activity against Leucania venalba at 600 mg/L relative to control
[14] = tested on: Tetranychus cinnabarinus; test: Acaricidal activity against Tetranychus cinnabarinus (carmine spider mite) at 600 mg/L relative to control

| SMILES | inhibition at 25 µg/mL [1] [%] | inhibition at 25 µg/mL [2] [%] | inhibition at 1.56 µg/mL [3] [%] | inhibition at 400 µg/mL [4] [%] | inhibition at 6.25 µg/mL [5] [%] | inhibition at 400 µg/mL [6] [%] | inhibition at 25 µg/mL [7] [%] | Activity [8] [%] | inhibition at 0.92 µg/mL [9] [%] | inhibition at 6.25 µg/mL [10] [%] | Activity [11] [%] | inhibition at 0.92 µg/mL [12] [%] | Activity [13] [%] | Activity [14] [%] |
| --- | --- | --- | --- | --- | --- | --- | --- | --- | --- | --- | --- | --- | --- | --- |
| CNC(=O)/C(=N/OC)c1ccccc1COc1cc(-c2ccccc2OC)nn1C | 10 | 0 | 45 | 75 | 100 | 100 | 100 | 100 | 0 | – | – | – | – | – |
| CNC(=O)/C(=N/OC)c1ccccc1COc1cc(-c2ccc(Cl)cc2)nn1C | 100 | – | 0 | 100 | 40 | 100 | 0 | 100 | – | 60 | 100 | – | – | – |
| CO/N=C(/C(=O)OC)c1ccccc1COc1cc(-c2ccc(C)cc2C)nn1C | 90 | 100 | – | 95 | 65 | 100 | 100 | 100 | 0 | 65 | – | 100 | – | – |
| CO/N=C(/C(=O)OC)c1ccccc1COc1c(C)c(-c2cc(C)ccc2C)nn1C | 80 | 100 | 20 | 100 | 40 | 100 | 100 | 100 | 100 | 40 | – | 60 | 100 | – |
| CNC(=O)/C(=N/OC)c1ccccc1COc1cc(-c2ccc(C)c(C)c2)nn1C | 100 | 100 | 40 | 100 | 100 | 100 | 100 | 100 | 50 | 85 | – | 80 | – | 100 |
| CO/N=C(/C(=O)OC)c1ccccc1COc1cc(-c2ccc(Cl)cc2)nn1C | 90 | 80 | – | 100 | 40 | 100 | 80 | – | – | 80 | 100 | 50 | – | – |
| CNC(=O)/C(=N/OC)c1ccccc1COc1c(C)c(-c2cc(C)ccc2C)nn1C | 100 | 100 | 0 | 100 | 40 | 100 | 100 | 100 | 100 | 50 | – | 100 | – | – |
| CNC(=O)/C(=N/OC)c1ccccc1COc1c(C)c(-c2ccc(OC)cc2)nn1C | 85 | 80 | 75 | 98 | 100 | 100 | 100 | – | 50 | 55 | – | 50 | 100 | – |
| CCOc1ccc(-c2nn(C)c(OCc3ccccc3/C(=N\OC)C(=O)OC)c2C)cc1 | 40 | 100 | 50 | 100 | 100 | 100 | 100 | – | 50 | – | – | 50 | – | 100 |
| CO/N=C(/C(=O)OC)c1ccccc1COc1cc(-c2ccc(C)c(C)c2)nn1C | 40 | 100 | – | 98 | 30 | 100 | 100 | 100 | 50 | – | – | 80 | – | 100 |
